Like-named read-outs stand apart in the source and are kept apart here. Some results are limits rather than exact numbers.

We go through 20 molecules from patent publication US8785457B2 (Cellzome Limited, priority 2009, dated 2014).

Common to all, as to assay type: binding
The target of one experiment is T1, PI3 Kgamma (PI3 Kg) (Homo sapiens, UniProt P48736).
T1 construct: endogenous in cells; host or cells: cell lysate
As to the kind of experiment: kinobeads assay, PI3Kgamma. Particulars: kinobeads assay, Table 6; read-out: Inhibition values (IC50) PI3Kg. Put shortly: (§1)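 IC50s are fitted to per-kinase dose-response curves. Kinases retained on phenylmorpholin-chromen affinity beads are read by multiplexed immunodetection after elution. Compound, added at a range of concentrations straight into cell lysate, competes for this bead capture.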

For the next experiment, the target named is T2, PI3 Kbeta (PI3 Kb) (Homo sapiens, UniProt P42338).
T2 construct: endogenous in cells; host or cells: cell lysate
T2 sequence (P42338 whole entry): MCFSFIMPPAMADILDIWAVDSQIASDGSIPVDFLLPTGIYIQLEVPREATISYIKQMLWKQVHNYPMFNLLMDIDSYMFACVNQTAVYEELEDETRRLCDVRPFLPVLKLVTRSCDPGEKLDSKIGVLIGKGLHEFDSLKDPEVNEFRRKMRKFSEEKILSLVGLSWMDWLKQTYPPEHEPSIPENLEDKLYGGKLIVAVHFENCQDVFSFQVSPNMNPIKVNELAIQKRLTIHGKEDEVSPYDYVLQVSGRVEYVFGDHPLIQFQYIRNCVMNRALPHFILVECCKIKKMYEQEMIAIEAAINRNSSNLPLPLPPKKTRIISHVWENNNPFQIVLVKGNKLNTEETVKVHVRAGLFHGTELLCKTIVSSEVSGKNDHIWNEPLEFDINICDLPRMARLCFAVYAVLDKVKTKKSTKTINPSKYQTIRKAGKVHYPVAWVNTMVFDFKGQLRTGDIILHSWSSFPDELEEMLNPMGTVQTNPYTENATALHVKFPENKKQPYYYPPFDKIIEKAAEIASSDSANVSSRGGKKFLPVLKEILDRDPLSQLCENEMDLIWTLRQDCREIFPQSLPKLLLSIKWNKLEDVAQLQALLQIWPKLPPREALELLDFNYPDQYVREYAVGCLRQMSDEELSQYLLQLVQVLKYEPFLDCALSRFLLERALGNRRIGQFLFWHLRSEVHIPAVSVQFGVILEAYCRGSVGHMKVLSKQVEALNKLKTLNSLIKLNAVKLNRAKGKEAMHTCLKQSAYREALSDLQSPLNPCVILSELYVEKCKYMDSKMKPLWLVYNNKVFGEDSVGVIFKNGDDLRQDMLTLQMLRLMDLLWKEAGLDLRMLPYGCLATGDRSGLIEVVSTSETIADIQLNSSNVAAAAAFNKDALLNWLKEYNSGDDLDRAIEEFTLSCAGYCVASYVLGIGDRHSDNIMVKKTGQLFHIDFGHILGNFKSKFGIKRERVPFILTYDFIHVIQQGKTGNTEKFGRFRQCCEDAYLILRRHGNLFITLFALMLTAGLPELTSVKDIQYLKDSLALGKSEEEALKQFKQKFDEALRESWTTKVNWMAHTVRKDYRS
T2 sequence (P27986 whole entry partner): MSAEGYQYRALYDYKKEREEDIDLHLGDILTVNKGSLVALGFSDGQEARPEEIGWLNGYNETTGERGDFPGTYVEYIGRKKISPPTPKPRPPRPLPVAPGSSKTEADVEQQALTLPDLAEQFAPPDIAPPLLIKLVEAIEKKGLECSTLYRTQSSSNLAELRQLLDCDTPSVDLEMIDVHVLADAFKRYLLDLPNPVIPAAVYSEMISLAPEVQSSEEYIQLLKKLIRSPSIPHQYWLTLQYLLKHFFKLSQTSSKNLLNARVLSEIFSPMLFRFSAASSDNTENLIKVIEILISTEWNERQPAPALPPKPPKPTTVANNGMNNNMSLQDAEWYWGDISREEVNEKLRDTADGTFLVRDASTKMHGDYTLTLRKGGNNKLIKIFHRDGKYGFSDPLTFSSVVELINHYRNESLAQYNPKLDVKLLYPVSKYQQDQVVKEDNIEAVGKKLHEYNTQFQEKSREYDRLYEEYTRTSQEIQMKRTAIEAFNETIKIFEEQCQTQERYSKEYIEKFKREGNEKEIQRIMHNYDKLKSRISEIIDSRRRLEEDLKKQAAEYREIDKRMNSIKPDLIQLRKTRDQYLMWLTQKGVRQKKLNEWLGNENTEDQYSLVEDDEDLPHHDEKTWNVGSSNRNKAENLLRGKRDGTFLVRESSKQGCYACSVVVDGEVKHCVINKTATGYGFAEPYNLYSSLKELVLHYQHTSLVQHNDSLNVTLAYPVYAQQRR
Nature of the experiment: kinobeads assay, PI3Kbeta. To be noted: kinobeads assay, Table 6; read-out: Inhibition values (IC50) PI3Kb. A digest of the protocol:
as §1

A further experiment concerns the target T3, PI3Kalpha (PI3Ka) (Homo sapiens, UniProt P42336).
T3 construct: endogenous in cells; host or cells: cell lysate
As to the kind of experiment: kinobeads assay, PI3Kalpha. Particulars: kinobeads assay, Table 6. Put shortly:
as §1

The next experiment deals with T4, PI3K delta (PI3 Kd) (Homo sapiens, UniProt O00329).
T4 construct: endogenous in cells; host or cells: Jurkat, clone E6-1 (ATCC TIB-152) cell lysate
T4 sequence (O00329 whole entry): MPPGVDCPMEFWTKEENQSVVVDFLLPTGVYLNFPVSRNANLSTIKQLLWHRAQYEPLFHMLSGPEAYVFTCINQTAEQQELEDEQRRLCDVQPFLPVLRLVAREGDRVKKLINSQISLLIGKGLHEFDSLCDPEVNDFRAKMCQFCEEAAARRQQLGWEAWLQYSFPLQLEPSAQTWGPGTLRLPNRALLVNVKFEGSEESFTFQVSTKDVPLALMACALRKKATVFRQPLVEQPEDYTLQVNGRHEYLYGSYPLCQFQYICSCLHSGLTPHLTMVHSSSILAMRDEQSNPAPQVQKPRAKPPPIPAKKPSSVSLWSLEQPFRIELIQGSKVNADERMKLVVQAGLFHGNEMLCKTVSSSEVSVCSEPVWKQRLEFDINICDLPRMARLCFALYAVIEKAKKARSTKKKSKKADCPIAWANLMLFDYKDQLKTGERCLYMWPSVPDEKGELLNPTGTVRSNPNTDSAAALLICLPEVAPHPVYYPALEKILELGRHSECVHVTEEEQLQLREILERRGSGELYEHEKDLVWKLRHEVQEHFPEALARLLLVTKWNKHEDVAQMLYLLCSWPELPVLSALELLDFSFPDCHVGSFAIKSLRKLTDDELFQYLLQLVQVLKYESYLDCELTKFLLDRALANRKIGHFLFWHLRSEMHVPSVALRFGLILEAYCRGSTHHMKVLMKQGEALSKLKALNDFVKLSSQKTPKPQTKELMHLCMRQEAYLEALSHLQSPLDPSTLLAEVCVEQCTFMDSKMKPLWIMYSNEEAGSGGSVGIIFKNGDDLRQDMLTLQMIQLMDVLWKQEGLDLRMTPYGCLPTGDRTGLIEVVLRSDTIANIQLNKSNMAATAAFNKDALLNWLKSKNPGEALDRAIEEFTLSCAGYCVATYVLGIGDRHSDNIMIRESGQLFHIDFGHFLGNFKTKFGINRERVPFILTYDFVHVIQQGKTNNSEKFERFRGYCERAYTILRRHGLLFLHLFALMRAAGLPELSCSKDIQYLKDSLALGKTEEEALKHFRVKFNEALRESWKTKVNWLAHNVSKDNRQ
T4 sequence (P27986 whole entry partner): as the sequence (P27986 whole entry partner) above
As to the kind of experiment: kinobeads assay, PI3K delta. Particulars: kinobeads assay, read-out: Inhibition values (IC50) PI3Kd. Put shortly:
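Competitive binding in Jurkat cell lysate (5 mg/mL protein) against beads carrying an immobilized phenylmorpholin-chromen ligand, in DP buffer pH 7.4 with NP40, DTT and NaF. Bead-bound kinases were eluted and quantified by antibody dot blot with infrared detection, and IC50 was taken from dose-response curves of a 1:3 dilution series.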

T1 sequence (P48736 whole entry): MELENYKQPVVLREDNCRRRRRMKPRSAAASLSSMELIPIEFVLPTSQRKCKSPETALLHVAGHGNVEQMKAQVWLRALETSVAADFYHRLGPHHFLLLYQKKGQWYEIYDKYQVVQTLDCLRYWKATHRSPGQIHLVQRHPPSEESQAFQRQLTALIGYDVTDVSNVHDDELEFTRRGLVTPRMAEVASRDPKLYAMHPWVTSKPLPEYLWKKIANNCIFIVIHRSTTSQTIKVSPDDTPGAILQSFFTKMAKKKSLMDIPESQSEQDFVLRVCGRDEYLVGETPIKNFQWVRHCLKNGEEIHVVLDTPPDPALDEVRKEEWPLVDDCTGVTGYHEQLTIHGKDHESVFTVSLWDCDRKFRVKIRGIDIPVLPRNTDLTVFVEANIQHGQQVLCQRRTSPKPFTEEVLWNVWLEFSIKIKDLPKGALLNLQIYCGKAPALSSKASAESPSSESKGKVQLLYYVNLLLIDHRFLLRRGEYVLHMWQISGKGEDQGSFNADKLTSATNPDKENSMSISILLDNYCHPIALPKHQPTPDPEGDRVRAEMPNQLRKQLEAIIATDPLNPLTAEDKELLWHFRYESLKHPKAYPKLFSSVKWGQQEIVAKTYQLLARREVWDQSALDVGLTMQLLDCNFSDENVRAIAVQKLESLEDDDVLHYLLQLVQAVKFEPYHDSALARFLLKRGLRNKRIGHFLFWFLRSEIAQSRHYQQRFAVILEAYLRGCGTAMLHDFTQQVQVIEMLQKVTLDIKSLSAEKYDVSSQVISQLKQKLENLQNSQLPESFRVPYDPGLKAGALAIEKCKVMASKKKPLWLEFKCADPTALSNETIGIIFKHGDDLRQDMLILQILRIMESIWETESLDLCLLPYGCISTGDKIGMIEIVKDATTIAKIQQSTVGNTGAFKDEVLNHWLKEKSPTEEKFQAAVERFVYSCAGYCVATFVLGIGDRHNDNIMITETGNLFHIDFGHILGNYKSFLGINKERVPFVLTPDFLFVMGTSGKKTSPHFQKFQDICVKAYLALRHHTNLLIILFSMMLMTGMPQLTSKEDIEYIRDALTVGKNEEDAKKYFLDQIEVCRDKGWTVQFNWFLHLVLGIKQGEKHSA
T3 sequence (P42336 whole entry): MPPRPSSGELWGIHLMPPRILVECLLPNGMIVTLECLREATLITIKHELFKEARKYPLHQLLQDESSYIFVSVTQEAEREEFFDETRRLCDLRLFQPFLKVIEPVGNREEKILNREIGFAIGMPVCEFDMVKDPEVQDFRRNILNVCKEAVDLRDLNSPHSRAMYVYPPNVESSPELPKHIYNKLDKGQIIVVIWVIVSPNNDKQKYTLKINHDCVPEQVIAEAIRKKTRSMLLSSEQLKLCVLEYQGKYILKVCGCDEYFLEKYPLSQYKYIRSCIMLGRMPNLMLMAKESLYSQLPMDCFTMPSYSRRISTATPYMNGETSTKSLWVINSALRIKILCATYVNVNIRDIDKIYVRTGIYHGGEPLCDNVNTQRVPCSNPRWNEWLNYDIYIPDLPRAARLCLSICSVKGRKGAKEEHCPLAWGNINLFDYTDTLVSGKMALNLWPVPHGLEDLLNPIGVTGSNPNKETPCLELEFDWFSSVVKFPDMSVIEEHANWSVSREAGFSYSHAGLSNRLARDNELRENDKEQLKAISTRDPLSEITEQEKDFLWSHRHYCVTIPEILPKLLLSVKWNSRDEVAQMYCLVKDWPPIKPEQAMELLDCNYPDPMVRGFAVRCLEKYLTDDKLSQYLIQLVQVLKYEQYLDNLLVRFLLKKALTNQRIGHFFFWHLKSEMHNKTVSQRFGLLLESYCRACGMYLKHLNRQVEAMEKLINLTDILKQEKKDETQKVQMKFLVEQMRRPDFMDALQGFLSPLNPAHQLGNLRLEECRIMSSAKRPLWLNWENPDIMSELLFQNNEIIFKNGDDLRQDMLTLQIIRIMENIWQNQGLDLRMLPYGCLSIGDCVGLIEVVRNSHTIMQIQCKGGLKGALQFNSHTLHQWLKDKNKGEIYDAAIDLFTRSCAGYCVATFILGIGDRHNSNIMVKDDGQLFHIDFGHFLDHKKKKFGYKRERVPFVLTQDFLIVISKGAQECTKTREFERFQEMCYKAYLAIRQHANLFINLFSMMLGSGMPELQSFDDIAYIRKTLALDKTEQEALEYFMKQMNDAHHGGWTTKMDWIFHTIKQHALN
T3 sequence (P27986 whole entry partner): as the sequence (P27986 whole entry partner) above

Take `CCNC(=O)Nc1ccc(-c2nc3c(c(N4CCOC[C@@H]4C)n2)CN(C(=O)OCC)CC3)cc1` [Example 107, (S)-ethyl 2-(4-(3-ethylureido)phenyl)-4-(3-methylmorpholino)-7,8-dihydropyrido[4,3-d]pyrimidine-6(5H)-carboxylate]: the IC50 at PI3 Kgamma (PI3 Kg), on PI3 Kbeta (PI3 Kb) and on PI3K delta (PI3 Kd) (Table 6) was greater than 10 µM throughout. Besides, the “Inhibition values (IC50) PI3Ka” value at PI3Kalpha (PI3Ka) is “D (D >10 μM)”.
As to `CCOC(=O)N1Cc2nc(-c3ccc(NC(=O)NC4CC4)c(F)c3)nc(N3CCOC[C@@H]3C)c2C1` [Example 105, (S)-ethyl 2-(4-(3-cyclopropylureido)-3-fluorophenyl)-4-(3-methylmorpholino)-5H-pyrrolo[3,4-d]pyrimidine-6(7H)-carboxylate], the IC50 at PI3 Kgamma (PI3 Kg), on PI3 Kbeta (PI3 Kb) and on PI3K delta (PI3 Kd) (Table 6) was greater than 10 µM in each case. For the same molecule, the “Inhibition values (IC50) PI3Ka” value at PI3Kalpha (PI3Ka) is “D (D >10 μM)”.
In the case of `CCNC(=O)Nc1ccc(-c2nc3c(c(N4CCOC[C@@H]4C)n2)CCN(C(=O)Cc2cccnc2)C3)cc1` [Example 91, (S)-1-ethyl-3-(4-(4-(3-methylmorpholino)-7-(2-(pyridin-3-yl)acetyl)-5,6,7,8-tetrahydropyrido[3,4-d]pyrimidin-2-yl)phenyl)urea], the IC50 at PI3 Kgamma (PI3 Kg), at PI3 Kbeta (PI3 Kb) and at PI3K delta (PI3 Kd) (Table 6) was greater than 10 µM each time. Also, the “Inhibition values (IC50) PI3Ka” value on PI3Kalpha (PI3Ka) was “D (D >10 μM)”.
With `CCNC(=O)Nc1ccc(-c2nc3c(c(N4CCOC[C@@H]4C)n2)CCN(C(=O)CO)C3)cc1` [Example 102, (S)-1-ethyl-3-(4-(7-(2-hydroxyacetyl)-4-(3-methylmorpholino)-5,6,7,8-tetrahydropyrido[3,4-d]pyrimidin-2-yl)phenyl)urea], the IC50 on PI3 Kgamma (PI3 Kg), at PI3 Kbeta (PI3 Kb) and on PI3K delta (PI3 Kd) (Table 6) was greater than 10 µM each time. The “Inhibition values (IC50) PI3Ka” value at PI3Kalpha (PI3Ka) was “D (D >10 μM)”.
As for `CCOC(=O)N1Cc2nc(-c3ccc(NC(=O)NC4CC4)cc3F)nc(N3CCOC[C@@H]3C)c2C1` [Example 131, (S)-ethyl 2-(4-(3-cyclopropylureido)-2-fluorophenyl)-4-(3-methylmorpholino)-5H-pyrrolo[3,4-d]pyrimidine-6(7H)-carboxylate], the IC50 on PI3 Kgamma (PI3 Kg), on PI3 Kbeta (PI3 Kb) and on PI3K delta (PI3 Kd) (Table 6) was greater than 10 µM in each case. Besides, the “Inhibition values (IC50) PI3Ka” value at PI3Kalpha (PI3Ka) is on record as “D (D >10 μM)”.
Take `C[C@H]1COCCN1c1nc(-c2ccc(NC(=O)NC3CC3)cc2)nc2c1CN(C(=O)C1CCOCC1)C2` [Example 129, (S)-1-cyclopropyl-3-(4-(4-(3-methylmorpholino)-6-(tetrahydro-2H-pyran-4-carbonyl)-6,7-dihydro-5H-pyrrolo[3,4-d]pyrimidin-2-yl)phenyl)urea]: the IC50 at PI3 Kgamma (PI3 Kg) and on PI3K delta (PI3 Kd) (Table 6) was greater than 10 µM throughout. Further, at PI3Kalpha (PI3Ka), the “Inhibition values (IC50) PI3Ka” value was “D (D >10 μM)”.
For `Cc1cc(NC(=O)Nc2ccc(-c3nc4c(c(N5CCOC[C@@H]5C)n3)CN(C)C4)cc2)no1` [Example 72, (S)-1-(4-(6-methyl-4-(3-methylmorpholino)-6,7-dihydro-5H-pyrrolo[3,4-d]pyrimidin-2-yl)phenyl)-3-(5-methylisoxazol-3-yl)urea], the IC50 at PI3 Kgamma (PI3 Kg), on PI3 Kbeta (PI3 Kb) and at PI3K delta (PI3 Kd) (Table 6) was greater than 10 µM each time. Moreover, the “Inhibition values (IC50) PI3Ka” value at PI3Kalpha (PI3Ka) is reported as “D (D >10 μM)”.
As to `C[C@H]1COCCN1c1nc(-c2ccc(NC(=O)Nc3ccn(C)n3)cc2)nc2c1CN(C)C2` [Example 84, (S)-1-(1-methyl-1H-pyrazol-3-yl)-3-(4-(6-methyl-4-(3-methylmorpholino)-6,7-dihydro-5H-pyrrolo[3,4-d]pyrimidin-2-yl)phenyl)urea], the IC50 on PI3 Kgamma (PI3 Kg) was greater than 10 µM; at PI3 Kbeta (PI3 Kb), greater than 10 µM; at PI3Kalpha (PI3Ka) (read-out: Inhibition values (IC50) PI3Ka), 1 to 10 µM; at PI3K delta (PI3 Kd) (Table 6), greater than 10 µM.
Turning to `CC(C)C(=O)N1CCc2c(nc(-c3ccc(NC(=O)NC4CC4)cc3)nc2N2CCOC[C@@H]2C)C1` [Example 61, (S)-1-cyclopropyl-3-(4-(7-isobutyryl-4-(3-methylmorpholino)-5,6,7,8-tetrahydropyrido[3,4-d]pyrimidin-2-yl)phenyl)urea], the IC50 on PI3 Kgamma (PI3 Kg), on PI3 Kbeta (PI3 Kb), at PI3K delta (PI3 Kd) (Table 4) and on PI3K delta (PI3 Kd) (Table 6) was greater than 10 µM throughout. Further, at PI3Kalpha (PI3Ka), the “Inhibition values (IC50) PI3Ka” value is “D (D >10 μM)”.
With `CCNC(=O)Nc1ccc(-c2nc3c(c(N4CCOC[C@@H]4C)n2)CN(CC(C)C)C3)cc1` [Example 66, (S)-1-ethyl-3-(4-(6-isobutyl-4-(3-methylmorpholino)-6,7-dihydro-5H-pyrrolo[3,4-d]pyrimidin-2-yl)phenyl)urea], the IC50 on PI3 Kgamma (PI3 Kg), at PI3 Kbeta (PI3 Kb) and at PI3K delta (PI3 Kd) (Table 6) was greater than 10 µM in each case. The “Inhibition values (IC50) PI3Ka” value on PI3Kalpha (PI3Ka) is reported as “D (D >10 μM)”.
For `CCNC(=O)Nc1cc(F)c(-c2nc3c(c(N4CCOC[C@@H]4C)n2)CCN(C)C3)cc1F` [Example 108, (S)-1-(2,5-difluoro-4-(7-methyl-4-(3-methylmorpholino)-5,6,7,8-tetrahydropyrido[3,4-d]pyrimidin-2-yl)phenyl)-3-ethylurea], the IC50 at PI3 Kgamma (PI3 Kg), at PI3 Kbeta (PI3 Kb) and at PI3K delta (PI3 Kd) (Table 6) was greater than 10 µM each time. Besides, the “Inhibition values (IC50) PI3Ka” value at PI3Kalpha (PI3Ka) is reported as “D (D >10 μM)”.
For the molecule `C[C@H]1COCCN1c1nc(-c2ccc(NC(=O)NC3CC3)cc2)nc2c1CN(CC(F)(F)F)C2` [Example 101, (S)-1-cyclopropyl-3-(4-(4-(3-methylmorpholino)-6-(2,2,2-trifluoroethyl)-6,7-dihydro-5H-pyrrolo[3,4-d]pyrimidin-2-yl)phenyl)urea], the IC50 at PI3K delta (PI3 Kd) (Table 6) is greater than 10 µM.
Regarding `CCNC(=O)Nc1ccc(-c2nc3c(c(N4CCOC[C@@H]4C)n2)CN(CC(C)(C)C)C3)cc1` [Example 67, (S)-1-ethyl-3-(4-(4-(3-methylmorpholino)-6-neopentyl-6,7-dihydro-5H-pyrrolo[3,4-d]pyrimidin-2-yl)phenyl)urea], the IC50 at PI3 Kgamma (PI3 Kg), at PI3 Kbeta (PI3 Kb) and on PI3K delta (PI3 Kd) (Table 6) was greater than 10 µM in each case. Besides, the “Inhibition values (IC50) PI3Ka” value at PI3Kalpha (PI3Ka) is reported as “D (D >10 μM)”.
With `CCNC(=O)Nc1ccc(-c2nc3c(c(N4CCOC[C@@H]4C)n2)CCN(C(=O)OCC)C3)cc1` [Example 77, (S)-ethyl 2-(4-(3-ethylureido)phenyl)-4-(3-methylmorpholino)-5,6-dihydropyrido[3,4-d]pyrimidine-7(8H)-carboxylate], the IC50 at PI3 Kgamma (PI3 Kg), on PI3 Kbeta (PI3 Kb) and on PI3K delta (PI3 Kd) (Table 6) was greater than 10 µM each time. Moreover, at PI3Kalpha (PI3Ka), the “Inhibition values (IC50) PI3Ka” value was “D (D >10 μM)”.
In the case of `CCNC(=O)Nc1ccc(-c2nc3c(c(N4CCOC[C@@H]4C)n2)CN(CC(F)(F)F)C3)cc1` [Example 68, (S)-1-ethyl-3-(4-(4-(3-methylmorpholino)-6-(2,2,2-trifluoroethyl)-6,7-dihydro-5H-pyrrolo[3,4-d]pyrimidin-2-yl)phenyl)urea], the IC50 at PI3 Kgamma (PI3 Kg), on PI3 Kbeta (PI3 Kb) and on PI3K delta (PI3 Kd) (Table 6) was greater than 10 µM throughout. Also, the “Inhibition values (IC50) PI3Ka” value at PI3Kalpha (PI3Ka) was “D (D >10 μM)”.
As to `CCNC(=O)Nc1ccc(-c2nc3c(c(N4CCOC[C@@H]4C)n2)CCN(C(=O)C(C)(C)C)C3)cc1` [Example 58, (S)-1-ethyl-3-(4-(4-(3-methylmorpholino)-7-pivaloyl-5,6,7,8-tetrahydropyrido[3,4-d]pyrimidin-2-yl)phenyl)urea], the IC50 on PI3 Kgamma (PI3 Kg), at PI3 Kbeta (PI3 Kb), at PI3K delta (PI3 Kd) (Table 4) and on PI3K delta (PI3 Kd) (Table 6) was greater than 10 µM in each case. Moreover, the “Inhibition values (IC50) PI3Ka” value on PI3Kalpha (PI3Ka) is given as “D (D >10 μM)”.
For the molecule `CCNC(=O)Nc1ccc(-c2nc3c(c(N4CCOC[C@@H]4C)n2)CCN(C(=O)NCC)C3)cc1` [Example 87, (S)—N-ethyl-2-(4-(3-ethylureido)phenyl)-4-(3-methylmorpholino)-5,6-dihydropyrido[3,4-d]pyrimidine-7(8H)-carboxamide], the IC50 on PI3 Kgamma (PI3 Kg), on PI3 Kbeta (PI3 Kb) and at PI3K delta (PI3 Kd) (Table 6) was greater than 10 µM in each case. Moreover, the “Inhibition values (IC50) PI3Ka” value at PI3Kalpha (PI3Ka) is given as “D (D >10 μM)”.
Regarding `CCNC(=O)Nc1ccc(-c2nc3c(c(N4CCOC[C@@H]4C)n2)CN(C(=O)OCC)C3)cc1` [Example 90, (S)-ethyl 2-(4-(3-ethylureido)phenyl)-4-(3-methylmorpholino)-5H-pyrrolo[3,4-d]pyrimidine-6(7H)-carboxylate], the IC50 at PI3 Kgamma (PI3 Kg), at PI3 Kbeta (PI3 Kb) and on PI3K delta (PI3 Kd) (Table 6) was greater than 10 µM in each case. At PI3Kalpha (PI3Ka), the “Inhibition values (IC50) PI3Ka” value is listed as “D (D >10 μM)”.
As for `CCNC(=O)Nc1ccc(-c2nc3c(c(N4CCOC[C@@H]4C)n2)CN(C(=O)OC(C)(C)C)C3)cc1` [Example 1, (S)-tert-butyl 2-(4-(3-ethylureido)phenyl)-4-(3-methylmorpholino)-5H-pyrrolo[3,4-d]pyrimidine-6(7H)-carboxylate], the IC50 at PI3K delta (PI3 Kd) (Table 4) and on PI3K delta (PI3 Kd) (Table 6) was greater than 10 µM in each case.
With `CCNC(=O)Nc1ccc(-c2nc3c(c(N4CCOC[C@@H]4C)n2)CCN(C(C)=O)C3)cc1` [Example 59, (S)-1-(4-(7-acetyl-4-(3-methylmorpholino)-5,6,7,8-tetrahydropyrido[3,4-d]pyrimidin-2-yl)phenyl)-3-ethylurea], the IC50 on PI3K delta (PI3 Kd) (Table 4) and at PI3K delta (PI3 Kd) (Table 6) was greater than 10 µM throughout.

The IC50 is the concentration that inhibits the measured activity by half.
